Laboratory results reported in paper PMC9653409, “Generative deep learning enables the discovery of a potent and selective RIPK1 inhibitor” (Nature Communications, 2022).

Tests used:
Experiment in all cases: Kinase inhibitory activity profiling of RI-962@10 µM (406 kinases, Eurofins)
Type in all cases: biochemical
[1] = biological target: panel of human kinases (kinase named in endpoint) (Homo sapiens, UniProt Q07912); settings: 10 µM; read-out: Activity (%), ACK1(h)
How it was run: (§1)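 Radiometric filter-binding kinase assays: enzyme preincubated 15 min with compound in 8 mM MOPS pH 7.0, 0.2 mM EDTA, 250 μM peptide substrate, 10 mM magnesium acetate, 10 μM [γ-33P]-ATP. Reaction started with Mg/ATP, run 40 min at room temperature, stopped with phosphoric acid; 33P incorporation read by scintillation counting. Other kinases by similar protocols.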

[2] = biological target: panel of human kinases (kinase named in endpoint) (Homo sapiens, UniProt P08581, M1250T); settings: 10 µM; read-out: Activity (%), Met(M1268T)(h)
How it was run: as §1

[3] = biological target: panel of human kinases (kinase named in endpoint) (Homo sapiens, UniProt O75676); settings: 10 µM; read-out: Activity (%), MSK2(h)
How it was run: as §1

[4] = biological target: panel of human kinases (kinase named in endpoint) (Homo sapiens, UniProt P45984); settings: 10 µM; read-out: Activity (%), JNK2α2(h)
How it was run: as §1

[5] = biological target: panel of human kinases (kinase named in endpoint) (Homo sapiens, UniProt O96017, I157T); settings: 10 µM; read-out: Activity (%), CHK2(I157T)(h)
How it was run: as §1

[6] = biological target: panel of human kinases (kinase named in endpoint) (Homo sapiens, UniProt Q13464); settings: 10 µM; read-out: Activity (%), ROCK-I(h)
How it was run: as §1

[7] = biological target: panel of human kinases (kinase named in endpoint) (Homo sapiens, UniProt P00519, Q252H); settings: 10 µM; read-out: Activity (%), Abl (Q252H) (h)
How it was run: as §1

[8] = biological target: panel of human kinases (kinase named in endpoint) (Homo sapiens, UniProt Q00537); settings: 10 µM; read-out: Activity (%), CDK17/cyclinY(h)
How it was run: as §1

[9] = biological target: panel of human kinases (kinase named in endpoint) (Homo sapiens, UniProt P34947); settings: 10 µM; read-out: Activity (%), GRK5(h)
panel of human kinases (kinase named in endpoint) (Homo sapiens, UniProt P34947), sequence (P34947 whole entry): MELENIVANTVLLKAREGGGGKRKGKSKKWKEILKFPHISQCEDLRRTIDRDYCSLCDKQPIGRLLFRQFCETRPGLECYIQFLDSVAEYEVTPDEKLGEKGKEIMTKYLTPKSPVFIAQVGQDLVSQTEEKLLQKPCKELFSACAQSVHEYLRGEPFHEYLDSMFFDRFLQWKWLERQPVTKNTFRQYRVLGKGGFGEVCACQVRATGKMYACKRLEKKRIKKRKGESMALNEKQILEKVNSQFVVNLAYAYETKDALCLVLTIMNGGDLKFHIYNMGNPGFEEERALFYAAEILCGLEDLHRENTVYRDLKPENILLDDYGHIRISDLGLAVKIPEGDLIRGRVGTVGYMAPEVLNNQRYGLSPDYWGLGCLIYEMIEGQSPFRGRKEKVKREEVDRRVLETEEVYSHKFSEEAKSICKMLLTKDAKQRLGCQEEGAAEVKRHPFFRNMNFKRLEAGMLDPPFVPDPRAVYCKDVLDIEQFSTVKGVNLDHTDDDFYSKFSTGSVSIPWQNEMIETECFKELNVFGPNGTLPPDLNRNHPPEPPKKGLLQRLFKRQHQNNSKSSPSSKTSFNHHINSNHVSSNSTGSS
How it was run: as §1

[10] = biological target: panel of human kinases (kinase named in endpoint) (Homo sapiens, UniProt P00533, L858R/T790M); settings: 10 µM; read-out: Activity (%), EGFR(T790M,L858R)(h)
How it was run: as §1

[11] = biological target: panel of human kinases (kinase named in endpoint) (Homo sapiens, UniProt Q9UQB9); settings: 10 µM; read-out: Activity (%), Aurora-C(h)
How it was run: as §1

[12] = biological target: panel of human kinases (kinase named in endpoint) (Homo sapiens, UniProt Q04912); settings: 10 µM; read-out: Activity (%), Ron(h)
How it was run: as §1

[13] = biological target: panel of human kinases (kinase named in endpoint) (Homo sapiens, UniProt Q15759); settings: 10 µM; read-out: Activity (%), SAPK2b(h)
How it was run: as §1

[14] = biological target: panel of human kinases (kinase named in endpoint) (Homo sapiens, UniProt Q16832); settings: 10 µM; read-out: Activity (%), DDR2(h)
How it was run: as §1

[15] = biological target: panel of human kinases (kinase named in endpoint) (Homo sapiens, UniProt P48426); settings: 10 µM; read-out: Activity (%), PIP4K2a(h)
How it was run: as §1

[16] = biological target: panel of human kinases (kinase named in endpoint) (Homo sapiens, UniProt O94804); settings: 10 µM; read-out: Activity (%), LOK(h)
panel of human kinases (kinase named in endpoint) (Homo sapiens, UniProt O94804), sequence (O94804 whole entry): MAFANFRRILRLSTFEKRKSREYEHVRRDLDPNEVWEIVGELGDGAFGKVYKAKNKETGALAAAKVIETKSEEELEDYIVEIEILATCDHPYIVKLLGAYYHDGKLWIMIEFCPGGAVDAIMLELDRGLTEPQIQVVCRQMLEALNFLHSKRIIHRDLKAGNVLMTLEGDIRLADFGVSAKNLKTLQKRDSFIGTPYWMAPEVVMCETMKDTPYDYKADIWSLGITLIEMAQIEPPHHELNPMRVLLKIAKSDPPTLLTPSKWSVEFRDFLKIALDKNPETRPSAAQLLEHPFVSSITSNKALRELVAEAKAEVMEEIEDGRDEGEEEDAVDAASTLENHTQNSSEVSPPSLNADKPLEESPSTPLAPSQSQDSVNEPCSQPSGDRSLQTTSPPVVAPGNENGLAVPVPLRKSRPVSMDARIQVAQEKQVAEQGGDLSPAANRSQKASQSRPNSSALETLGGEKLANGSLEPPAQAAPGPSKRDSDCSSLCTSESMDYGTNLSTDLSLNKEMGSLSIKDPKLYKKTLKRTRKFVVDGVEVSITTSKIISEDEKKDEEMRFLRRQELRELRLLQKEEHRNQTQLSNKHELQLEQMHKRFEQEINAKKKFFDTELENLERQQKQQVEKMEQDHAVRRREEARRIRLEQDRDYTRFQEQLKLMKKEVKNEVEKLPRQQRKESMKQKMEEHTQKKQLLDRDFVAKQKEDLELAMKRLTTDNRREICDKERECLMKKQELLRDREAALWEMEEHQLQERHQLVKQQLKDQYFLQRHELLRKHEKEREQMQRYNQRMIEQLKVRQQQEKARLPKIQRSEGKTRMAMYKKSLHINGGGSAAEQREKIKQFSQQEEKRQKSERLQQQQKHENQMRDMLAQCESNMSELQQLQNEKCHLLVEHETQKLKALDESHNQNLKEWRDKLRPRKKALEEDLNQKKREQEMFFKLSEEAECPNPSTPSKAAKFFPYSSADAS
How it was run: as §1

[17] = biological target: panel of human kinases (kinase named in endpoint) (Homo sapiens, UniProt P16234, V561D); settings: 10 µM; read-out: Activity (%), PDGFRα(V561D)(h)
panel of human kinases (kinase named in endpoint) (Homo sapiens, UniProt P16234, V561D), sequence (P16234 24-1089 V561D): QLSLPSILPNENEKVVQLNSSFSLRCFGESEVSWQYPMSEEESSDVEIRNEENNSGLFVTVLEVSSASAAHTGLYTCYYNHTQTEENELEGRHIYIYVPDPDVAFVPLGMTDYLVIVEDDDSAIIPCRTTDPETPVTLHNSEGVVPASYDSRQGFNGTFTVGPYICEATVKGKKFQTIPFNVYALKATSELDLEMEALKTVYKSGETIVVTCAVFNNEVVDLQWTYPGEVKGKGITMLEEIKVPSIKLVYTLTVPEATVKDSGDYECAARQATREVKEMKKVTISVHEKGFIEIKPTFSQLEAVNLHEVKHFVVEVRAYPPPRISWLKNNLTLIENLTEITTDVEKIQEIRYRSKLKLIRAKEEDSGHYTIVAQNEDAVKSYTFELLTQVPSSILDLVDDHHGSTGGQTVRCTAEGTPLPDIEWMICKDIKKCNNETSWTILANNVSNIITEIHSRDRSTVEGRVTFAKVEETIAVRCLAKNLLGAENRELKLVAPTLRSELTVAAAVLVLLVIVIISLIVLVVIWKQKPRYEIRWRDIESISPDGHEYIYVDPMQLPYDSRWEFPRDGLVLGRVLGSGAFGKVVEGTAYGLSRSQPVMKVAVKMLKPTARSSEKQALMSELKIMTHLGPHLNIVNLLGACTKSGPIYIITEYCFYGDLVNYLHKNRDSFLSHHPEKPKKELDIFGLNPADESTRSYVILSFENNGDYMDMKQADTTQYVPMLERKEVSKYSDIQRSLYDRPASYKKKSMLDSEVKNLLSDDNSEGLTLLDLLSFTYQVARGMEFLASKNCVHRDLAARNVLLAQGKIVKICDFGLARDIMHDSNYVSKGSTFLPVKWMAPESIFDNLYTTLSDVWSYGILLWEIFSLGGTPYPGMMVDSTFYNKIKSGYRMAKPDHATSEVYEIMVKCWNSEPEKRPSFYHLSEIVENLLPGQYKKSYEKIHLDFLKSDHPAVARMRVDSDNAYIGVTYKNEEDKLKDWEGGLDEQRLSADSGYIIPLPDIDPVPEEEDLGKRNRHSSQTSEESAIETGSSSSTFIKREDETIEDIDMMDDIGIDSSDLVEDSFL
How it was run: as §1

[18] = biological target: panel of human kinases (kinase named in endpoint) (Homo sapiens, UniProt O75385); settings: 10 µM; read-out: Activity (%), ULK1(h)
How it was run: as §1

[19] = biological target: panel of human kinases (kinase named in endpoint) (Homo sapiens, UniProt Q9H2X6); settings: 10 µM; read-out: Activity (%), HIPK2(h)
How it was run: as §1

[20] = biological target: panel of human kinases (kinase named in endpoint) (Homo sapiens, UniProt O00329); settings: 10 µM; read-out: Activity (%), PI3 Kinase (p110d/p85a)(h)
How it was run: as §1

[21] = biological target: panel of human kinases (kinase named in endpoint) (Homo sapiens, UniProt P35968); settings: 10 µM; read-out: Activity (%), KDR(h)
panel of human kinases (kinase named in endpoint) (Homo sapiens, UniProt P35968), sequence (P35968 20-1356): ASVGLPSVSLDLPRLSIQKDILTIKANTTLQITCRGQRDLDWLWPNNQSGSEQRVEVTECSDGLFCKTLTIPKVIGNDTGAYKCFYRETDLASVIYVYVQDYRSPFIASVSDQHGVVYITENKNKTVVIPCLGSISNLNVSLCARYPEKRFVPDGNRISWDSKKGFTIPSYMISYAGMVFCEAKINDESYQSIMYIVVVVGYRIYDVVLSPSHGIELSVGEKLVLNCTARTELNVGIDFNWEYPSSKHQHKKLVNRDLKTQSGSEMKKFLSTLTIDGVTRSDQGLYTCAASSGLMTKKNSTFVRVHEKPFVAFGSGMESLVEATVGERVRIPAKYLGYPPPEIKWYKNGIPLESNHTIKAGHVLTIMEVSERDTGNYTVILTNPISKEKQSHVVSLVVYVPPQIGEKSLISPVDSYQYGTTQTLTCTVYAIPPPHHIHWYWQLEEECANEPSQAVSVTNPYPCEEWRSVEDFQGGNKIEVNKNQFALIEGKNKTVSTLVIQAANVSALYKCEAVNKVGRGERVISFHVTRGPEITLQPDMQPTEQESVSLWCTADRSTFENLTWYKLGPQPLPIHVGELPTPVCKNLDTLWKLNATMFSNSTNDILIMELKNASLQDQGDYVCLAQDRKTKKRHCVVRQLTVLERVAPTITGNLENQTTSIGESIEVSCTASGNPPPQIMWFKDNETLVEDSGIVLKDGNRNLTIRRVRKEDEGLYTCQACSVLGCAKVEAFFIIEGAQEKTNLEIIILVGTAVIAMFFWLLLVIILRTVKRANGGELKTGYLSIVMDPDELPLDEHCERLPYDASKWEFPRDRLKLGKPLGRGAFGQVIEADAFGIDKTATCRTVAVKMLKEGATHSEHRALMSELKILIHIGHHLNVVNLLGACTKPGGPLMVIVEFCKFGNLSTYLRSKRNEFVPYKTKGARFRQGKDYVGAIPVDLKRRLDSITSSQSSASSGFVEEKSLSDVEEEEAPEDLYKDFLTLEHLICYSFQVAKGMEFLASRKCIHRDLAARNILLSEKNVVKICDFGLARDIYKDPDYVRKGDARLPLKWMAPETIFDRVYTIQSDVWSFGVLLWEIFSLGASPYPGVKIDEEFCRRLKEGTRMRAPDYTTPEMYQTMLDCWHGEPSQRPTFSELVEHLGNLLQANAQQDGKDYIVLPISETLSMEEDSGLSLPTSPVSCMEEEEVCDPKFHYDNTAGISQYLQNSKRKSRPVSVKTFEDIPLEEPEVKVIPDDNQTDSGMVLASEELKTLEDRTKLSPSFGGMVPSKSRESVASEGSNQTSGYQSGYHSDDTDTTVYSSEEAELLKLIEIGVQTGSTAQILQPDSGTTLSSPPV
How it was run: as §1

[22] = biological target: panel of human kinases (kinase named in endpoint) (Homo sapiens, UniProt P31749); settings: 10 µM; read-out: Activity (%), PKBα(h)
panel of human kinases (kinase named in endpoint) (Homo sapiens, UniProt P31749), sequence (P31749 whole entry): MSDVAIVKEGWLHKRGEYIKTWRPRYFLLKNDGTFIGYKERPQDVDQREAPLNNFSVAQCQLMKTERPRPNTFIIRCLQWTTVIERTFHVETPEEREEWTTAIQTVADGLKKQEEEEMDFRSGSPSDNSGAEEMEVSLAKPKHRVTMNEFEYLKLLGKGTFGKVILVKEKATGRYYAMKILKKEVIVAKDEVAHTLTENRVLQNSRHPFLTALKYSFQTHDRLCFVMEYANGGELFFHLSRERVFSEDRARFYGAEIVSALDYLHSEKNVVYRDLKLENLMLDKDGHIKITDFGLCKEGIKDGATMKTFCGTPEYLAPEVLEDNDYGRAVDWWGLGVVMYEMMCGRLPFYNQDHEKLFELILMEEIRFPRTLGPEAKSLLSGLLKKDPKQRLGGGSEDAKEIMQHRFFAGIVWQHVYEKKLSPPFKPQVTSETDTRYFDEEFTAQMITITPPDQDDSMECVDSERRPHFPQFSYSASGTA
How it was run: as §1

[23] = biological target: panel of human kinases (kinase named in endpoint) (Homo sapiens, UniProt Q9UPE1); settings: 10 µM; read-out: Activity (%), MSSK1(h)
How it was run: as §1

[24] = biological target: panel of human kinases (kinase named in endpoint) (Homo sapiens, UniProt Q13153); settings: 10 µM; read-out: Activity (%), PAK1(h)
How it was run: as §1

[25] = biological target: panel of human kinases (kinase named in endpoint) (Homo sapiens, UniProt Q04771); settings: 10 µM; read-out: Activity (%), ALK2(h)
panel of human kinases (kinase named in endpoint) (Homo sapiens, UniProt Q04771), sequence (Q04771 21-509): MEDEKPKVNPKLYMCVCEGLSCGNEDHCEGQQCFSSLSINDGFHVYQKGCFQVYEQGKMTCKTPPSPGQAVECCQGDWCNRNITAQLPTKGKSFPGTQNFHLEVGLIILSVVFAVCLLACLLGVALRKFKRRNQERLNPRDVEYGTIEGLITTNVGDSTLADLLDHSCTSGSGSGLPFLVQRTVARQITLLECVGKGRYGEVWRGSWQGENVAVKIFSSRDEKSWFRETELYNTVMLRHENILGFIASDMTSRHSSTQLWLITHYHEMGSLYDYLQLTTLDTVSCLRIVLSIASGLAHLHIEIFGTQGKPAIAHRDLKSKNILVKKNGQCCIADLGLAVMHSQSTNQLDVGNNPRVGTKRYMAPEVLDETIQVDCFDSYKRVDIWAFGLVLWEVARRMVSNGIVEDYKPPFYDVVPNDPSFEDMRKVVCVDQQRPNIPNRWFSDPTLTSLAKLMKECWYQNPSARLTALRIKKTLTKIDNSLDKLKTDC
How it was run: as §1

Question: `CC(C)C(=O)Nc1nc2cc(-c3ccc4c(c3)c(C(=O)NC(C)c3ccccc3)cn4C)ccn2n1` (stereo not shown) [RI-962] was tested. Which activity at 10 µM [1] did it give?
Answer: 100%

Question: What about the activity at 10 µM [2] of the same molecule?
Answer: 115%

Question: What about the activity at 10 µM [3] of the same molecule?
Answer: 94%

Question: What about the activity at 10 µM [4] of the same molecule?
Answer: 71%

Question: And the activity at 10 µM [5]?
Answer: 92%

Question: And the activity at 10 µM [6]?
Answer: 99%

Question: And the activity at 10 µM [7]?
Answer: 135%

Question: And the activity at 10 µM [8]?
Answer: 124%

Question: What about the activity at 10 µM [9] of the same molecule?
Answer: 80%

Question: And the activity at 10 µM [10]?
Answer: 85%

Question: What about the activity at 10 µM [11] of the same molecule?
Answer: 95%

Question: What about the activity at 10 µM [12] of the same molecule?
Answer: 104%

Question: What about the activity at 10 µM [13] of the same molecule?
Answer: 84%

Question: What about the activity at 10 µM [14] of the same molecule?
Answer: 126%

Question: What about the activity at 10 µM [15] of the same molecule?
Answer: 98%

Question: What about the activity at 10 µM [16] of the same molecule?
Answer: 108%

Question: What about the activity at 10 µM [17] of the same molecule?
Answer: 102%

Question: What about the activity at 10 µM [18] of the same molecule?
Answer: 69%

Question: And the activity at 10 µM [19]?
Answer: 72%

Question: And the activity at 10 µM [20]?
Answer: 64%

Question: And the activity at 10 µM [21]?
Answer: 92%

Question: What about the activity at 10 µM [22] of the same molecule?
Answer: 80%

Question: And the activity at 10 µM [23]?
Answer: 85%

Question: What about the activity at 10 µM [24] of the same molecule?
Answer: 105%

Question: What about the activity at 10 µM [25] of the same molecule?
Answer: 104%
